Assay results from the NIST ThermoML archive (doi:10.1016/j.jct.2016.07.026).

Assay: wn = mass fraction of the nth substance listed
Details: 101 kPa, Liquid, Concentric cylinders viscometry

O=C([O-])[O-].[K+].[K+] [potassium carbonate] + O
viscosity [mPa·s]
Details	303.2 K	313.2 K	323.2 K
w1 = 0.15	1.27	1.08	0.92
w1 = 0.2	1.43	1.22	1.05
w1 = 0.2501	1.64	1.39	1.2
